From patent US20240199614A1, “MACROCYCLIC EGFR INHIBITORS FOR THE TREATMENT OF CANCER” (Theseus Pharmaceuticals, Inc., priority 2021, published 2024)
pIC50: −log10 of the molar value. Read-outs that look alike come from different tables or passages of the source.

Key:
[1] = amide bond, TBTU/Et3N, DCM, 20.0 °C
[2] = target: Ba/F3 EGFR-Del19/C797S (Homo sapiens, UniProt P00533, C797S, cells depend on it, form not given); experiment: Ba/F3 viability assay (CellTiter-Glo), BAF3 DC; format: cell-based; settings: Ba/F3 EGFR-Del19/C797S cell viability
Text: (§1) The biological activity of compounds described herein were studied according to standard methods known in the art. Methods were used to study inhibition of EGFR, including mutant forms of EGFR comprising L858R, T790M, C797S, and/or Del19 mutations, or any combination thereof (e.g., L858R single, double, or triple mutants). Exemplary, non-limiting methods are described herein.
(§2) Inhibition of cell proliferation was studied using Ba/F3 viability assays, including the Promega CellTiter-Glo cell viability assay. This assay was used to study the effect of compounds described herein in the following assays: (1) Ba/F3 EGFR-Del19/T790M; (2); Ba/F3 EGFR-Del19/C797S; and (3) Ba/F3 EGFR-Del19/T790M/C797S. P-EGFR Signaling Assays

[3] = target: Ba/F3 EGFR-Del19/T790M (Homo sapiens, UniProt P00533, T790M, cells depend on it, form not given); experiment: Ba/F3 viability assay (CellTiter-Glo), BAF3 DT; format: cell-based; settings: Ba/F3 EGFR-Del19/T790M cell viability
Text: as §1, §2

[4] = target: EGFR^L858R/T790M/C797S (Homo sapiens, UniProt P00533, C797S/L858R/T790M); experiment: HTRF KinEASE-TK in vitro kinase assay, KINASE LTC; format: biochemical
Text: as §1
(§3) Assays using an in vitro kinase assay kit (HTRF KinEASE-TK kit) were used to study the inhibitory activity of compounds described herein with respect to EGFR mutants such as (1) EGFRL858R, (2) EGFR^L858R/T790M, and (3) EGFR^L858R/T790M/C797S.

[5] = target: EGFR^L858R/T790M (Homo sapiens, UniProt P00533, L858R/T790M); experiment: HTRF KinEASE-TK in vitro kinase assay, KINASE LT; format: biochemical
Text: as §1, §3

[6] = target: EGFRL858R (Homo sapiens, UniProt P00533, L858R); experiment: HTRF KinEASE-TK in vitro kinase assay, KINASE L; format: biochemical; settings: EGFR L858R kinase
Text: as §1, §3

[7] = target: Ba/F3 EGFR-Del19/T790M/C797S (Homo sapiens, UniProt P00533, T790M/C797S, cells depend on it, form not given); experiment: Ba/F3 viability assay (CellTiter-Glo), BAF3 DTC; format: cell-based; settings: Ba/F3 EGFR-Del19/T790M/C797S cell viability
Text: as §1, §2

[8] = amide bond, TBTU, TEA, DCM, 20.0 °C

Chain of Ba/F3 EGFR-Del19/T790M (P00533 with tags, fused parts or gaps DEL746-750/T790M, form open): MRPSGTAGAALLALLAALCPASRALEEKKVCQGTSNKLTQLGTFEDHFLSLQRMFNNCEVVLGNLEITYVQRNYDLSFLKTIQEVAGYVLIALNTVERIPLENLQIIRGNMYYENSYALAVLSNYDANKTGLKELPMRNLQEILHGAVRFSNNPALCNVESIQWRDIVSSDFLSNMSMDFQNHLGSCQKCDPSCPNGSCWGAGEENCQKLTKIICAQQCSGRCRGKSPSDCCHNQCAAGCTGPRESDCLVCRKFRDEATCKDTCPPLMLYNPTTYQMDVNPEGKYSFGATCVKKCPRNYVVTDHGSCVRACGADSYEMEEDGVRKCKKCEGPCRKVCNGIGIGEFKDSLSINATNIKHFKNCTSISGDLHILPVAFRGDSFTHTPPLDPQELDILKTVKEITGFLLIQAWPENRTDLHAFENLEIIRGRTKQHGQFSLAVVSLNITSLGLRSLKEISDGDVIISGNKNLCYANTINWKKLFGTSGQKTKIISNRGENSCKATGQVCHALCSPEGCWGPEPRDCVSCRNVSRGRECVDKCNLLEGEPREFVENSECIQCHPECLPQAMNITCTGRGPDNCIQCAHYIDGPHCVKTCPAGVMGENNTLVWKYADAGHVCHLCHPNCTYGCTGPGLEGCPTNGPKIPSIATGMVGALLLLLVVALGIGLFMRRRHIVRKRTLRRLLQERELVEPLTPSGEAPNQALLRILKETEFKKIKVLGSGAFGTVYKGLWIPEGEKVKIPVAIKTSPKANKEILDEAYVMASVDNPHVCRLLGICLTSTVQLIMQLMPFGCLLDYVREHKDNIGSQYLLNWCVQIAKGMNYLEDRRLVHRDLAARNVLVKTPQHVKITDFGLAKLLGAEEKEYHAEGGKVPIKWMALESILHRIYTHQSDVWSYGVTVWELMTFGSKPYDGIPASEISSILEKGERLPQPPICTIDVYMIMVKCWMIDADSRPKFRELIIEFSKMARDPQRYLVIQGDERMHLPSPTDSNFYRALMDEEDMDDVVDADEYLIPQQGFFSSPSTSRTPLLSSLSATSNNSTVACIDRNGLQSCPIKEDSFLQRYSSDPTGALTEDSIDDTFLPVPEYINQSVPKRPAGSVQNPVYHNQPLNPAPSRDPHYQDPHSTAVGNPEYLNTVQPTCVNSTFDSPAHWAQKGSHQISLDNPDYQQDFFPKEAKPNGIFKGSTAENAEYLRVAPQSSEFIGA
Chain of Ba/F3 EGFR-Del19/T790M/C797S (P00533 with tags, fused parts or gaps DEL746-750/T790M/C797S, form open): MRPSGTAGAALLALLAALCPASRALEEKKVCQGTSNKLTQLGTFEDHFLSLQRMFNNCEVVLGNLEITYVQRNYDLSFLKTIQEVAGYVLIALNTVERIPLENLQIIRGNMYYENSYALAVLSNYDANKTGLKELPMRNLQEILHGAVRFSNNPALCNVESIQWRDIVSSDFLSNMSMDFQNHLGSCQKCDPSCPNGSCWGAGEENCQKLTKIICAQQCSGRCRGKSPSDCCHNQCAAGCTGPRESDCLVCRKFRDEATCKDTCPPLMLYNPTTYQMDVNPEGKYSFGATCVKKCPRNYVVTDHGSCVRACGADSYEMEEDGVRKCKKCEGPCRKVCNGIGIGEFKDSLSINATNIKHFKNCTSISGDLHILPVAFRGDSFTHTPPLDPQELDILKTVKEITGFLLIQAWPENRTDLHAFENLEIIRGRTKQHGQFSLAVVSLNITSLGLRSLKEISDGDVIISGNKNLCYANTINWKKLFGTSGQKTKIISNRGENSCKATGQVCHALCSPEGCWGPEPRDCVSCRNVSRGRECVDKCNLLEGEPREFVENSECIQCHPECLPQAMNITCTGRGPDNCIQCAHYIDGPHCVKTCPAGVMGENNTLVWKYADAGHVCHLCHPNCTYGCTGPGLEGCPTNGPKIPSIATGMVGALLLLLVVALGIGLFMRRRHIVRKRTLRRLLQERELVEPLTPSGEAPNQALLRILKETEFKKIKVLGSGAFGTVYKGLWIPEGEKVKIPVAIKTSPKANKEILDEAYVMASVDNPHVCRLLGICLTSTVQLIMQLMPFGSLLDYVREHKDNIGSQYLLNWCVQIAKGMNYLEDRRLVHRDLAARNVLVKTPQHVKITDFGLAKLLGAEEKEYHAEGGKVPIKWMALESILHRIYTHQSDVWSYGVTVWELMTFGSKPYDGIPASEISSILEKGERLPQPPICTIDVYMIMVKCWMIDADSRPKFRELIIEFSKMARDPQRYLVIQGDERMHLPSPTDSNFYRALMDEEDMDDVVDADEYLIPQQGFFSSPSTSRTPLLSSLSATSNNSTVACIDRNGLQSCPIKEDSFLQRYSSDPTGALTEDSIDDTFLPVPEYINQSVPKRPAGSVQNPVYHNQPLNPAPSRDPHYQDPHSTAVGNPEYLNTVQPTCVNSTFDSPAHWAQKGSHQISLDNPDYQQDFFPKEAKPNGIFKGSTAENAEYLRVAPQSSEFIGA
Chain of EGFR^L858R/T790M/C797S (P00533 25-1210 T790M/C797S/L858R): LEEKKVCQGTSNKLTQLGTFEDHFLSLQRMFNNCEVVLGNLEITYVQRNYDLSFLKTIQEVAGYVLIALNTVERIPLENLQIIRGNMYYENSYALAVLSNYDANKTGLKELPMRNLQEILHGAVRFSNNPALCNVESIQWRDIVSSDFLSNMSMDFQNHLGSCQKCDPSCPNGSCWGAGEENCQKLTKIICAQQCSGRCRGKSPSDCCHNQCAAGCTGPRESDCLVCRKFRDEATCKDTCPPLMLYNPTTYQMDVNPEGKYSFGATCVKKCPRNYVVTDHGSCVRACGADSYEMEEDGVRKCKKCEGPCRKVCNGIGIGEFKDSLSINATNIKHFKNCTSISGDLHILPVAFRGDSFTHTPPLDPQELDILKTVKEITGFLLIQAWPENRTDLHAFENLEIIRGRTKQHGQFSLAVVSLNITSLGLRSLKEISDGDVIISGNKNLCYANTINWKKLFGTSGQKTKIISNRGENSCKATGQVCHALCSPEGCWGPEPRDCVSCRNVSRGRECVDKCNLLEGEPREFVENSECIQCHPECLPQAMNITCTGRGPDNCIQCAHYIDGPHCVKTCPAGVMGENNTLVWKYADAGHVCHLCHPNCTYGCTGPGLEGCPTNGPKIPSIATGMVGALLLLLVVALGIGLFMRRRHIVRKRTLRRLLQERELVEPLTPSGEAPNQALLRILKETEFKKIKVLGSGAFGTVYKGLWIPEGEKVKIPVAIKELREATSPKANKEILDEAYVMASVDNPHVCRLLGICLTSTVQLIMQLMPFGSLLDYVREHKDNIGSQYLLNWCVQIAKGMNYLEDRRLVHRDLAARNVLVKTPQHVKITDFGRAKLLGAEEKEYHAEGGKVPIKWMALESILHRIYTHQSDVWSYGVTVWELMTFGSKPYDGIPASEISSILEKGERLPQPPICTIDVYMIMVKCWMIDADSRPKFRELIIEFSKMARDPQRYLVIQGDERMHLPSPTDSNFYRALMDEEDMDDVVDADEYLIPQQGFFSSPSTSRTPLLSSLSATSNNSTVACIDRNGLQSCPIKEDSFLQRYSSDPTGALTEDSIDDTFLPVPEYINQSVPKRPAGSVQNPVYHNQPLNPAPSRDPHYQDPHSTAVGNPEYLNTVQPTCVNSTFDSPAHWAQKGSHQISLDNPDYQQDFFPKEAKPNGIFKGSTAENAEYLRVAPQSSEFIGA
Chain of EGFRL858R (P00533 25-1210 L858R): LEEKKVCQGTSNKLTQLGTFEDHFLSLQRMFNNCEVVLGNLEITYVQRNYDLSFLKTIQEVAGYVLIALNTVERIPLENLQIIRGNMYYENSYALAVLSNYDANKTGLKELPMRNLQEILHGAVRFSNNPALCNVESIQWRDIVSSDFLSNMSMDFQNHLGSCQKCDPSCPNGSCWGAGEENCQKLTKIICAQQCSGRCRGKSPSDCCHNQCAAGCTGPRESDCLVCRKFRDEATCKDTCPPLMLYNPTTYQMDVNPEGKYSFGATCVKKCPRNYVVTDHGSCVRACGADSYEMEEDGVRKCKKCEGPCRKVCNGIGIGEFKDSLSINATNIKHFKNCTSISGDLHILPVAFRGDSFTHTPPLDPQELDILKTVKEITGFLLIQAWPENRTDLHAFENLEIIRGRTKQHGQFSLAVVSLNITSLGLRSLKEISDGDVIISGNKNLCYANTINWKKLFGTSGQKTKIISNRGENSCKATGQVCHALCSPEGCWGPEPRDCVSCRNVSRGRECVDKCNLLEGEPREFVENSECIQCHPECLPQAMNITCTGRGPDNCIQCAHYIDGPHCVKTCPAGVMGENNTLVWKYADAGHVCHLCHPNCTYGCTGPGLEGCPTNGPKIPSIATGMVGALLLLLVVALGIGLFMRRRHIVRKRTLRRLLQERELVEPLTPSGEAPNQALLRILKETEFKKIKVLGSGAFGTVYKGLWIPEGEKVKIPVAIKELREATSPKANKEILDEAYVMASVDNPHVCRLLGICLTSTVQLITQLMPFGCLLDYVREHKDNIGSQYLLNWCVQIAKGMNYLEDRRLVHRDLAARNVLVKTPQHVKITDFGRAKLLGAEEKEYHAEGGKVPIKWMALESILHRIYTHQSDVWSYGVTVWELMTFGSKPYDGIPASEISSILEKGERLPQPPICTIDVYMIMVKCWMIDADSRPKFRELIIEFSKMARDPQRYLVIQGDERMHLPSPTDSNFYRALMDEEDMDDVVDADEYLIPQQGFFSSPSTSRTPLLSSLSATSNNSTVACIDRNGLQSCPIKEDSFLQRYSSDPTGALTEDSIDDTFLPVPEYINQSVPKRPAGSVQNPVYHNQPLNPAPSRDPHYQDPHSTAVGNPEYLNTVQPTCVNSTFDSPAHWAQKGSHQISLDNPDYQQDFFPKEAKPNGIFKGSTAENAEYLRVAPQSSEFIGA

pIC50 [4] | pIC50 [5] | pIC50 [6] | SMILES | ring closure, isolated yield ([1]; from Cc1cc(C(=O)O)cc(-c2cnn(C)c2CCC[C@@H](C)Cn2c(N)nc3ccc(Br)cc32)n1, 14-membered ring, 5.05 mM) [%] | GI50 [2] [nM] | GI50 [3] [nM] | GI50 [7] [nM] | ring closure, isolated yield ([1]; from Cc1cc(C(=O)O)cc(-c2cnn(C)c2CCCC[C@@H](C)Cn2c(N)nc3ccc(Br)cc32)n1, 15-membered ring, 2.75 mM) [%] | ring closure, yield of all isomers ([8]; from Cc1cc(C(=O)O)cc(-c2cnn(C)c2CCCC[C@@H](C)Cn2c(N)nc3ccc(Br)cc32)n1, 2.75 mM, 2.0 h) [%] | ring closure, isolated yield ([1]; from Cc1cc(C(=O)O)cc(-c2cnn(C)c2N2CC(OCCn3c(N)nc4ccc(Br)cc43)C2)n1, 15-membered ring, 3.99 mM) [%] | ring closure, yield of all isomers ([8]; from Cc1cc(C(=O)O)cc(-c2cnn(C)c2N2CC(OCCn3c(N)nc4ccc(Br)cc43)C2)n1, 3.99 mM, 1.0 h) [%]
> 7.30 | > 7.30 | > 7.30 | Cc1cc2cc(n1)-c1cnn(C)c1CCC[C@@H](C)CN1/C(=N/C2=O)Nc2ccc(N3C[C@@H](C)N(C)[C@@H](C)C3)cc21 [(11)] | – | < 50 | < 50 | < 50 | – | – | – | –
> 7.30 | > 7.30 | > 7.30 | Cc1cc2cc(n1)-c1cnn(C)c1CCCCCN1/C(=N/C2=O)Nc2ccc(CN3CCN(C)CC3)cc21 [(69)] | – | < 50 | < 50 | < 50 | – | – | – | –
> 7.30 | > 7.30 | 6.00 to 7.00 | Cc1cc2cc(n1)-c1cnn(C)c1-c1cccc(c1)C(C)CN1/C(=N/C2=O)Nc2ccc(C(=O)N3CCN(C)CC3)cc21 (centres unmarked) [(57)] | – | 100 to 1000 | ≥ 1000 | 100 to 1000 | – | – | – | –
> 7.30 | > 7.30 | > 7.30 | COc1cc(N2CCN(C)CC2)cc2c1N/C1=N\C(=O)c3cc(C)nc(c3)-c3cnn(C)c3CCC[C@@H](C)CN12 [(3)] | – | 100 to 1000 | 50 to 100 | < 50 | – | – | – | –
> 7.30 | > 7.30 | > 7.30 | Cc1cc2cc(n1)-c1cnn(C)c1CCC[C@@H](C)CN1/C(=N/C2=O)Nc2ccc(N3CCC(N4CC[C@H](N(C)C)C4)CC3)cc21 [(4)] | – | < 50 | < 50 | < 50 | – | – | – | –
> 7.30 | > 7.30 | > 7.30 | Cc1cc2cc(n1)-c1cnn(C)c1CCC[C@@H](C)CN1/C(=N/C2=O)Nc2c(C)cc(N3CCN(C)CC3)cc21 [(2)] | – | 50 to 100 | < 50 | < 50 | – | – | – | –
> 7.30 | > 7.30 | > 7.30 | Cc1cc2cc(n1)-c1cnn(C)c1CCC[C@@H](C)CN1/C(=N/C2=O)Nc2ccc(CN3CCN(CCF)CC3)cc21 [(25)] | – | < 50 | < 50 | < 50 | – | – | – | –

The next lines start with the compound.

SMILES | pIC50 [4] | pIC50 [5] | pIC50 [6] | ring closure, isolated yield ([1]; from Cc1cc(C(=O)O)cc(-c2cnn(C)c2CCC[C@@H](C)Cn2c(N)nc3ccc(Br)cc32)n1, 14-membered ring, 5.05 mM) [%] | GI50 [2] [nM] | GI50 [3] [nM] | GI50 [7] [nM] | ring closure, isolated yield ([1]; from Cc1cc(C(=O)O)cc(-c2cnn(C)c2CCCC[C@@H](C)Cn2c(N)nc3ccc(Br)cc32)n1, 15-membered ring, 2.75 mM) [%] | ring closure, yield of all isomers ([8]; from Cc1cc(C(=O)O)cc(-c2cnn(C)c2CCCC[C@@H](C)Cn2c(N)nc3ccc(Br)cc32)n1, 2.75 mM, 2.0 h) [%] | ring closure, isolated yield ([1]; from Cc1cc(C(=O)O)cc(-c2cnn(C)c2N2CC(OCCn3c(N)nc4ccc(Br)cc43)C2)n1, 15-membered ring, 3.99 mM) [%] | ring closure, yield of all isomers ([8]; from Cc1cc(C(=O)O)cc(-c2cnn(C)c2N2CC(OCCn3c(N)nc4ccc(Br)cc43)C2)n1, 3.99 mM, 1.0 h) [%]
Cc1cc2cc(n1)-c1cnn(C)c1CCC[C@@H](C)CN1/C(=N/C2=O)Nc2ccc(Br)cc21 | – | – | – | 60.5 | – | – | – | – | – | – | –
Cc1cc2cc(n1)-c1cnn(C)c1CCCC[C@@H](C)Cn1c(nc3ccc(Br)cc31)NC2=O | – | – | – | – | – | – | – | 72.7 | 72.7 | – | –
Cc1cc2cc(n1)-c1cnn(C)c1CCCCCCN1/C(=N/C2=O)Nc2ccc(N(C)CCN(C)C)cc21 [(40)] | > 7.30 | > 7.30 | > 7.30 | – | 100 to 1000 | < 50 | < 50 | – | – | – | –
Cc1cc2cc(n1)-c1cnn(C)c1N1CC(C1)OCCN1/C(=N/C2=O)Nc2ccc(Br)cc21 | – | – | – | – | – | – | – | – | – | 60.3 | 60.3
Cc1cc2cc(n1)-c1cnn(C)c1CCC[C@@H](C)CN1/C(=N/C2=O)Nc2ccc(N(CCN(C)C)CC3COC3)cc21 [(18)] | > 7.30 | > 7.30 | > 7.30 | – | 100 to 1000 | 50 to 100 | < 50 | – | – | – | –
